Measurements from patent US6479461B1, “Use of alkylmonoglucosides as molecular vectors” (Ulice, priority 1997, dated 2002).
Where two headings read alike, the source gives them in different places. Blank lines part the entries; values can stand above or below the compound they belong to.

What was measured:
[1] = tested on: skin model: epidermis reconstituted from keratinocytes on a matrix of collagen; test: MTT dosage on skin model (cytotoxicity)
From the text: We have quantified and compared in vitro, the cytotoxicity of lactic acid and of lactate of α-butylglucoside on a skin model. This skin model is made up of a matrix of collagen on which rests an epidermis reconstituted from keratinocytes and presenting a similar architecture to that of the human epidermis. The transformation of tetrazolium salt (MTT) in blue crystals of Formozan is proportional to the activity of the dehydrogenase succinate, (a mitochondrial enzyme). As a consequence, the more the epidermis contains living cells, the larger the transformation by the dehydrogenase succinate of the MTT in blue Formozan crystals will be. The quantity of Formozan is measured in the spectrophotometer. The cellular viability, carried out to determine the toxicity of the product, is calculated according to the formula:
% viability=OD produced/OD cellular control×100
The cellular control is carried out without issue. A reference tensioactive SDS (Sodium Dodecyl Sulphate) at 1.5 mg/ml is equally tested as a cytotoxic control.
If the cellular viability is between 70 and 50%, the products are considered as slightly cytotoxic.
If it is lower than 50%, the products are considered as cytotoxic.

[2] = tested on: corneas from abattoir beef carcasses
From the text: The BCOP test (bovine corneal opacity and permeability) makes it possible to evaluate the ocular irritation indice in vitro on corneas from abattoir beef carcasses. It measures two parameter of ocular irritation: the opacity and cellular permeability.
The opacity is defined as the difference of light transmission between a treated cornea and a control cornea. The permeability is equal to the optical density (OD) measured in a spectrophotometer at 490 nm.
The irritation score in vitro is established by using the following formula:
Score in vitro=opacity value+[…] the value of OD.
The objective values are combined and the scores of ocular irritation in vitro are compared to an irritation scale previously established. In general, the irritant potential is classed in three categories weak (0 to 25), moderate (25.1 to 55) and severe (55.1 and +).

[3] = SDS at 1-5 mg/ml, MTT, skin model

SMILES: CCCCCCCCCCCCOS(=O)(=O)[O-].[Na+] [SDS, Sodium Dodecyl Sulphate]
% viability in comparison to the control [1, 3]: 14.8% | Average (optical density at 540 nm) [1, 3]: 0.051 | OD trial 1 (optical density at 540 nm) [1, 3]: 0.046 | OD trial 2 (optical density at 540 nm) [1, 3]: 0.056

SMILES: CC(O)C(=O)O (stereo not shown) [Lactic acid, lactic acid]
% viability in comparison to the control ([1]; 5 %): 16% | Average (optical density at 540 nm) ([1]; 5 %): 0.055 | OD trial 1 (optical density at 540 nm) ([1]; 5 %): 0.044 | OD trial 2 (optical density at 540 nm) ([1]; 5 %): 0.066 | ocular irritation category [2]: moderately irritant

miscibility with saturated and unsaturated acids (in a melted medium): miscible in all proportions | Solubility at 20° C. (solvent: Acetonitrile): 50 % (p/p) | Solubility at 20° C. (solvent: Dichloromethane): 70 % (p/p) | Solubility at 20° C. (solvent: Dioxane): 70 % (p/p) | Solubility at 20° C. (solvent: Ethanol (95/96%)): 70 % (p/p) | Solubility at 20° C. (solvent: Glycerol): 70 % (p/p) | Solubility at 20° C. (solvent: Polyethylene glycol 200): 70 % (p/p) | Solubility at 20° C. (solvent: Propylene glycol): 70 % (p/p) | Solubility at 20° C. (solvent: Water): 60 % (p/p)
SMILES: CCCCO[C@H]1O[C@H](CO)[C@@H](O)[C@H](O)[C@H]1O [α-butylglucoside, n-butyl-α-D-monoglucopyranose]
ocular irritation category [2]: non-irritant

SMILES: CCCCO[C@H]1O[C@H](COC(=O)C(C)O)[C@@H](O)[C@H](O)[C@H]1O (stereo partly drawn) [Lactate of α-butylglucoside, Lactic Ester of α-Butylglucoside]
% viability in comparison to the control [1]: 74.5% | Average (optical density at 540 nm) [1]: 0.255 | OD trial 1 (optical density at 540 nm) [1]: 0.242 | OD trial 2 (optical density at 540 nm) [1]: 0.265 | cytotoxicity class [1]: not cytotoxic | irritancy compared with lactic acid [1]: less irritant than lactic acid
